The record followed here is patent US20090023186A1, “USE OF VALPROIC ACID FOR ENHANCING PRODUCTION OF RECOMBINANT PROTEINS IN MAMMALIAN CELLS” (EXCELLGENE SA, priority 2007, published 2009).

The assay relates to HEK293E cells. Description: Influence of temperature on IgG batch titer and comparison with sodium butyrate (Example 2). Format: cell-based, Human. Particulars: day 5 after transfection. Here is the method: No. 14571C-[…]; Lot No. 6A0093; SAFC Biosciences, Lenexa, Kans., USA, “Ex-Cell” medium; note: “Ex-Cell” medium-as used herein-refers to a medium comprising 4 mmol/l L-glutamine) in a 50-ml filter tube each (TPP AG, Trasadingen, Switzerland; Cat. No. 87050, Lot 20050174). In a separate set, 10 million suspension-adapted CHO DG44 cells were resuspended in 0.5 ml of ProCHO5 serum-free medium with 4 mmol/[…] hypoxanthine and 0.194 g/l thymidine (BioWhittaker (Lonza), Belgium; Cat. No. BE12-[…]; Lot No. 7 MB0040; “ProCHO5” medium; note: “ProCHO5” medium-as used herein-refers to a medium comprising 4 mmol/[…] hypoxanthine and 0.194 g/l thymidine) in a 50-ml filter tube each (TPP AG, Trasadingen, Switzerland; Cat. No. 87050, Lot 20050174). Then 12.5 μg plasmid DNA at a concentration of 1 μg/μl was added in each tube with the following composition 50% (6.25 μg) p-LC (SEQ ID NO: 1) 50% (6.25 μg) p-HC (SEQ ID NO: 3). Plasmid p-LC comprises the genetic information for the production of the light chain of an IgG antibody, plasmid p-HC comprises the genetic information for the production of the heavy chain of an IgG antibody. The particular vector constructs used in the present invention can also be obtained from the inventors. The inventors can be contacted via e-mail at […]. Moreover, commercial services do exist that produce any desired nucleotide sequence even comprising several kilobase pairs including complete expression cassettes in plasmid backgrounds (e.g., Invitrogen, Carlsbad, USA; Geneart, Germany.) Thus, providing the genetic sequence information of the plasmids should enable one of ordinary skill in the art to order the plasmids of the present invention at one of the commercial services listed. After shortly mixing the DNA with the cells by gentle shaking, 25 μg of 25-kd linear polyethyleneimine (“PEI”; Polysciences, Eppelheim, Germany; [2]) were added at a concentration of 1 μg/μl to each of the tubes. After shortly mixing by gentle shaking, the filter tubes containing the cells together with the DNA and PEI were transferred into an orbital shaker (Kühner Shaker Cabinet ISF-4-W, “Kühner shaker”, Kühner AG, Birsfelden, Switzerland), and the cells were incubated for 4 hours at 37° C. in a 5% CO2 atmosphere under shaking at 180 rpm. After that time, 4.5 ml of Ex-Cell medium were added to each of the filter tubes containing HEK 293 cells and 4.5 ml of Pro-CHO5 were added to each of the filter tubes containing CHO DG44 cells. […] No. […] Sigma-Aldrich Chemie GmbH, Industriestrasse 25, CH-9471 Buchs SG) was added to the corresponding tubes at the corresponding final concentrations. The cells then were returned into the Kühner shaker. Half the tubes were incubated at 37° C. in a 5% CO2 atmosphere under shaking at 180 rpm, the other half was incubated at 31° C. […] The ELISA was performed as published in prior art. In short, Goat anti-human kappa light chain IgG (Biosource) was used for coating the ELISA-plates, and with AP-conjugated goat anti-human gamma chain IgG (Biosource) the synthesized IgG1 was detected. NPP was used as a substrate for the alkaline phosphatase. Absorption was measured at 405 nm against 490 nm using a microplate reader (SPECTRAmaxTM340; Molecular Devices, Palo Alto, Calif., USA).

Setting [1] is: 3.8 mmol/l VPA, relative to control = 1.

Consider `CCCC(CCC)C(=O)O` [VPA, valproic acid], for which, under setting [1], the “Batch titer increase at 31° C.” value was found to be 5.3 ± 0.4 and the “Batch titer increase at 37° C.” value is 5.3 ± 0.5. The “performance compared with sodium butyrate (batch titer increase)” value (31° C. and 37° C.) is on record as “slightly better performance than sodium butyrate”.
